Legend:
in vitro = details: African green monkey
[1] = test system: VSV pseudotyped with the SARS-CoV-2 Wuhan-Hu-1 S; test: organism not typed; type: cell-based; details: for antiviral activity (reduction of viral entry) versus cellular toxicity: VSVΔG-SWh in VeroE6 cells, various concentrations; for EC50: Vero C1008, read-out: EC50 (concentration reducing infection by VSV pseudotyped with the SARS-CoV-2 Wuhan-Hu-1 S by 50%)
[2] = test system: SARS-CoV-2 in A549-ACE2 cells; type: cell-based; details: 24 h, compounds 20 μM, remdesivir 30 μM
[3] = test system: SARS-CoV-2 in VeroE6-TMPRSS2 cells; type: cell-based; details: 24 h, compounds 20 μM, remdesivir 30 μM
[4] = test system: VSV pseudotyped with SARS-CoV-2 Omicron BA.1 Spike; type: cell-based; details: dose response
[5] = test system: VSV pseudotyped with SARS-CoV-2 Delta Spike; type: cell-based; details: dose response
[6] = test system: VSV pseudotyped with SARS-CoV-1 Spike; type: cell-based

Row | SMILES | CC50 (in vitro) [µM] | antiviral activity (reduction of viral entry) versus cellular toxicity [1] | EC50 [1] [µM] | virus production after SARS-CoV-2 infection [2] | virus production after SARS-CoV-2 infection [3] | inhibition of infection by VSV pseudotyped with SARS-CoV-2 Omicron BA.1 Spike [4] | inhibition of infection by VSV pseudotyped with SARS-CoV-2 Delta Spike [5] | inhibition of infection by VSV pseudotyped with SARS-CoV-1 Spike [6] | inhibition of infection by VSV pseudotyped with SARS-CoV-2 Wuhan Spike ([1]; dose response)
1 | C=C1CC[C@H](O)C/C1=C/C=C1\CCC[C@]2(C)[C@@H]([C@H](C)CCCC(C)C)CC[C@@H]12 [cholecalciferol] | 83.7 ± 6.12 | showed antiviral activity in the absence of toxicity | 14.8 ± 4.11 |  |  |  |  |  | 
2 | C=C1CC[C@H](O)C/C1=C/C=C1\CCC[C@]2(C)[C@@H]([C@H](C)CCCC(C)(C)O)CC[C@@H]12 [calcifediol] | 16.8 ± 0.5 | antiviral activity could not be separated from toxicity | 6.13 ± 3.52 |  |  |  |  |  | 
3 | CCCCCCCCc1ccc(CCC(N)(CO)CO)cc1 [fingolimod] | 20.4 ± 19.6 | showed antiviral activity in the absence of toxicity | 7.12 ± 2.25 | statistically significant reduction of virus production | significant reduction | dose-dependent reduction | dose-dependent reduction | dose-dependent reduction | dose-dependent reduction
4 | CCC(CC)COC(=O)[C@H](C)N[P@](=O)(OC[C@H]1O[C@@](C#N)(c2ccc3c(N)ncnn23)[C@H](O)[C@@H]1O)Oc1ccccc1 [remdesivir] |  |  |  | reduced viral replication significantly | reduced viral replication significantly |  |  |  | 
5 | CC[N+](C)(CC)CCOC(=O)C(O)(c1ccccc1)C1CCCCC1 (stereo not shown) [oxyphenomium] |  | could not be observed |  |  |  |  |  |  | 
6 | CC(C)c1c(CN(C)C(C)Cc2ccccc2)n(C)n(-c2ccccc2)c1=O (stereo not shown) [famprofazone] | 79 ± 2.75 | showed antiviral activity in the absence of toxicity | 7.64 ± 4.55 | statistically significant reduction of virus production |  |  |  |  | 
